Drawing on patent US7868026B2, “Therapeutic compounds” (Pfizer Inc., priority 2005, dated 2011), this text covers Ki and IC50 for 22 compounds.

Structures are written as SMILES. Like-named read-outs stand apart in the source and are kept apart here. Where only a bound is given, the exact number is not on record here.

What all share (format): biochemical
The target in test [1] is T1, CYP3A4 (Homo sapiens, UniProt P08684). The test is described as follows: Determination of compound Kiapp against recombinant CYP3A4 enzyme (BFC fluorescent substrate). As to the method:
1. Determination of compound Kiapp
A determination of the Kiapp of the compounds of the invention against recombinant CYP3A4 enzyme was performed as follows. The assay was performed in a 100 mM sodium phosphate buffer pH 7.0, 5 mM TCEP and containing 2% dimethylformamide (final concentration) upon addition of substrate and inhibitor. A typical reaction for the determination of Kiapp values was carried at room temperature in a solid black Costar u-bottom 96-well polypropylene plate. In each well, recombinant CYP3A4 enzyme (5.5 nM or 8 nM, final concentration depending on the commercial source of the enzyme) was pre-incubated in the presence of the inhibitor for at least 30 minutes in the assay buffer. When pre-incubation was completed (˜30 min), the reaction was initiated by adding NADPH (200 uM, final concentration), and 7-benzyloxy-4-(trifluoromethyl)-coumarin (BFC) (5 uM, final concentration). The oxidation of the coumarin substrate was recorded by a 96-well plate reader POLARstar (BMG LABTECH, Offenburg, Germany).
The initial reaction velocities were measured during the first 5 min of the reaction when the release of the fluorescent product is linear with time, in the absence and in the presence of various concentrations of inhibitors. For non-partial & partial inhibitors, the Kiapp values were determined by using the equation for tight-binding inhibitor developed by Morrison, J F (Morrison J F. Biochim Biophys Acta. 1969, 185: 269-86) and by Szedlaseck S E et al. (Szedlascek, S. E., Ostafe, V., Serban, M., and Vlad, M.O. Biochem. J. 1988, 254:311-312), respectively.
The fluorescent substrate BFC was purchased from Sigma (St Louis, Mo.). Two commercial sources of recombinant enzymes were used in this study: recombinant CYP3A4−b5 enzyme (Baculosomes®) was purchased from Invitrogen (Carlsbad, Calif.) and the recombinant CYP3A4+b5 enzyme (Supersomes®) was purchased from BD Biosciences (Woburn, Mass.).

For test [2], the target named is T1, CYP3A4. The test is described as follows: Determination of IC50 against CYP3A4 by measurement of inhibition of testosterone metabolism (human liver microsomes, 6-β-OH-testosterone by LC-MS/MS). Details: 0.1 mg/mL human liver microsomes. The conditions noted are these: read-out: IC50 (Testo.). As for the experimental part: 2. Determination of IC50 Against CYP3A4 by Measurement of Inhibition of Testosterone Metabolism
This assay was performed using a standard 96 well plate design. […] The incubation substrate mix contains 25 μM testosterone, 0.1 mg/mL human liver microsomes, 1 mM NADPH, and potassium phosphate buffer (100 mM, pH 7.4). Quantitation of metabolite peak area ratio against an internal standard is determined by LC-MS/MS analysis. The production of 6-β-OH-testosterone from testosterone metabolism is determined after incubation for eight minutes by comparison to a standard curve generated for the metabolite
(§1) Samples were analyzed in the MRM mode using a Sciex API 3000 mass spectrometer (Applied Biosystems, Foster City, Calif.) with a Paradigm MS4 binary pump (Michrom BioResources Inc., Auburn, Calif.) and a LEAP CTC PAL autosampler (LEAP Technologies, Carrboro, N.C.). A Phenomenex Synergi, 4μ, Polar-RP, 10×2.0 mm column (Phenomenex, Torrance, Calif.) was used for separation with a mobile phase composition of: 0.1% formic acid in water (A) and: 0.1% formic acid in methanol (B). The following gradient was used: […]
(§2) The sample injection volume was 10 μL and flow was split post-column with 0.4 mL/min going to the mass spectrometer. Analysis was performed using the following API 3000 mass spectrometer settings: […]

Test [3] has as its target T1, CYP3A4. The experiment in a line: Determination of IC50 against CYP3A4 by measurement of inhibition of midazolam metabolism (human liver microsomes, 1-hydroxymidazolam by LC-MS/MS). On the set-up: 0.1 mg/mL human liver microsomes. The note with it: 2 μM midazolam, 0.1 mg/mL human liver microsomes. As for the experimental part:
3. Determination of IC50 Against CYP3A4 by Measurement of Inhibition of Midazolam Metabolism
This assay was performed using a standard 96 well plate design. […] The incubation substrate mix contains 2 μM midazolam, 0.1 mg/mL human liver microsomes, 1 mM NADPH, and potassium phosphate buffer (100 mM, pH 7.4). Quantitation of metabolite peak area ratio against internal standard is determined by LC-MS/MS analysis. The production of 1-hydroxymidazolam from midazolam metabolism is determined after incubation for eight minutes by comparison to a standard curve generated for the metabolite.
as §1, §2

Where [4] appears, read: Baculo. enzyme preparation, read-out: Kiapp (BFC, Baculo.).
Setting [5] is: Super. enzyme preparation, read-out: Kiapp (BFC, Super.).

T1 sequence (P08684 whole entry): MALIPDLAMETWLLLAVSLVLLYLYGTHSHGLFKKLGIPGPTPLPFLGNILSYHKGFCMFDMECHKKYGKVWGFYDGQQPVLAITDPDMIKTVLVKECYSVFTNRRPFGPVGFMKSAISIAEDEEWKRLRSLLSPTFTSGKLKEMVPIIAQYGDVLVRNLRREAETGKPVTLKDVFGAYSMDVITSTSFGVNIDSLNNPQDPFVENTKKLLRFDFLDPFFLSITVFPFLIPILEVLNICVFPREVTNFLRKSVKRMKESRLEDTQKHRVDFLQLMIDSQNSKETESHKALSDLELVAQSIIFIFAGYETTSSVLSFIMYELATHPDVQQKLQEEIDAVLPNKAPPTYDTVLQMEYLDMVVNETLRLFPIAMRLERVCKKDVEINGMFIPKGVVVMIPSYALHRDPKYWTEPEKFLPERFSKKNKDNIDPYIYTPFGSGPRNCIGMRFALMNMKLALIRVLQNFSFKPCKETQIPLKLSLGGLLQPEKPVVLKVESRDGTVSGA

As to `CCOc1ccccc1CNC(=O)c1ccccc1S(=O)(=O)Nc1cccnc1` [Example 72, N-(2-ethoxybenzyl)-2-[(pyridin-3-ylamino)sulfonyl]benzamide], the Ki in test [1] (setting [4]) came to 164 nM; in test [1] (setting [5]), 12.9 nM. Also, the figures for the half-inhibitory concentration (IC50) in test [2] and in test [3] were under 3 nM and 27 nM, respectively.

As for `COc1cncc(NS(=O)(=O)c2ccc(F)cc2C(=O)NCc2ccc(F)cc2)c1` [Example 307, 5-fluoro-N-(4-fluorobenzyl)-2-{[(5-methoxypyridin-3-yl)amino]sulfonyl}benzamide], the values for the Ki in test [1] (setting [4]) and in test [1] (setting [5]) were 143 nM and 16.8 nM, respectively. For the same compound, the IC50 is 36 nM in test [2] and 44 nM in test [3].

In the case of `CC(C)(C)NC(=O)c1ccccc1S(=O)(=O)Nc1cccnc1` [Example 14, N-(tert-butyl)-2-[(pyridin-3-ylamino)sulfonyl]benzamide], the Ki in test [1] (setting [4]) was found to be 503 nM. For the same compound, the 50% inhibitory concentration (IC50) in test [2] stood at 60 nM.

For the compound `CCCCCNC(=O)c1ccccc1S(=O)(=O)Nc1cccnc1` [Example 61, N-pentyl-2-[(pyridin-3-ylamino)sulfonyl]benzamide], the Ki was determined as 131 nM in test [1] (setting [4]) and 7.7 nM in test [1] (setting [5]). The results for the concentration for half-maximal inhibition (IC50) in test [2] and in test [3] were 30.2 nM and 26.8 nM, respectively.

As to `CCOc1ccncc1NS(=O)(=O)c1ccccc1C(=O)NC(C)C1CC1` (stereo not shown) [Example 270, N-(1-cyclopropylethyl)-2-{[(4-ethoxypyridin-3-yl)amino]sulfonyl}benzamide], the Ki in test [1] (setting [4]) stood at 352 nM; in test [1] (setting [5]), 39.8 nM. Moreover, the IC50 came to 52 nM in test [2] and 22 nM in test [3].

As to `Cc1cncc(NS(=O)(=O)c2ccccc2C(=O)N(C)CCc2ccccc2)c1` [Example 344, N-methyl-2-{[(5-methylpyridin-3-yl)amino]sulfonyl}-N-(2-phenylethyl)benzamide], the values for the Ki in test [1] (setting [4]) and in test [1] (setting [5]) were 54.4 nM and 21.2 nM, respectively. For the same compound, the values for the IC50 in test [2] and in test [3] were 9 nM and 7 nM, respectively.

Consider `COc1cncc(NS(=O)(=O)c2ccccc2C(=O)NCc2ccc3c(c2)CCO3)c1` [Example 153, N-(2,3-dihydro-1-benzofuran-5-ylmethyl)-2-{[(5-methoxypyridin-3-yl)amino]sulfonyl}benzamide], for which the results for the Ki in test [1] (setting [4]) and in test [1] (setting [5]) were 262 nM and 27.1 nM, respectively. Also, the half-maximal inhibitory concentration (IC50) in test [2] is 19 nM; in test [3], 5 nM.

Regarding `CCOc1cncc(NS(=O)(=O)c2ccccc2C(=O)NCc2ccc(F)c(F)c2)c1` [Example 290, N-(3,4-difluorobenzyl)-2-{[(5-ethoxypyridin-3-yl)amino]sulfonyl}benzamide], the Ki in test [1] (setting [4]) is 14.6 nM; in test [1] (setting [5]), 3.94 nM. Also, the 50% inhibitory concentration (IC50) in test [2] stood at 16 nM; in test [3] it was 4 nM.

Consider `CN(C)Cc1ccc(CNC(=O)c2ccccc2S(=O)(=O)Nc2cccnc2)cc1` [Example 84, N-{4-[(dimethylamino)methyl]benzyl}-2-[(pyridin-3-ylamino)sulfonyl]benzamide], for which the Ki in test [1] (setting [4]) was over 1000 nM; in test [1] (setting [5]) it was 464 nM. The results for the concentration for half-maximal inhibition (IC50) in test [2] and in test [3] were 28 nM and over 750 nM, respectively.

For `CC(C)(CNC(=O)c1ccccc1S(=O)(=O)Nc1cccnc1)N1CCOCC1` [Example 32, N-(2-methyl-2-morpholin-4-ylpropyl)-2-[(pyridin-3-ylamino)sulfonyl]benzamide], the results for the IC50 in test [2] and in test [3] were over 750 nM and 413 nM, respectively.

On to `CC(C)(CN1CCOCC1)NC(=O)c1ccccc1[S+]([O-])Cc1cccnc1` (stereo not shown) [Example 70, N-(1,1-dimethyl-2-morpholin-4-ylethyl)-2-[(pyridin-3-ylmethyl)sulfinyl]benzamide], for which the Ki in test [1] (setting [4]) is 800 nM. For the same compound, the concentration for half-maximal inhibition (IC50) in test [2] came out at 421 nM.

Consider `O=C(c1ccccc1S(=O)(=O)Nc1cccnc1)N1CCN(c2ccc(F)cc2)CC1` [Example 13, 2-{[4-(4-fluorophenyl)piperazin-1-yl]carbonyl}-N-pyridin-3-ylbenzenesulfonamide], for which the Ki in test [1] (setting [4]) was found to be 251 nM. Further, the 50% inhibitory concentration (IC50) in test [2] was found to be 24 nM.

As to `COCCN(C(=O)c1ccccc1S(=O)(=O)Nc1cncc(N)c1)C(C)C` [Example 114, 2-{[(5-aminopyridin-3-yl)amino]sulfonyl}-N-isopropyl-N-(2-methoxyethyl)benzamide], the Ki in test [1] (setting [4]) is 466 nM; in test [1] (setting [5]), 105 nM. The IC50 in test [3] is 134 nM.

`Cc1cncc(NS(=O)(=O)c2ccccc2C(=O)N(C)Cc2ccc(C(F)(F)F)cc2)c1` [Example 145, N-methyl-2-{[(5-methylpyridin-3-yl)amino]sulfonyl}-N-[4-(trifluoromethyl)benzyl]benzamide]: the Ki in test [1] (setting [4]) amounted to 43.9 nM; in test [1] (setting [5]), 5.9 nM. Moreover, the concentration for half-maximal inhibition (IC50) in test [3] amounted to 18 nM.

In the case of `COc1cncc(NS(=O)(=O)c2ccccc2C(=O)N(Cc2nccn2C)C(C)C)c1` [Example 97, N-isopropyl-2-{[(5-methoxypyridin-3-yl)amino]sulfonyl}-N-[(1-methyl-1H-imidazol-2-yl)methyl]benzamide], the Ki is 421 nM in test [1] (setting [4]) and 157 nM in test [1] (setting [5]). Also, the IC50 in test [3] is 107 nM.

Consider `COc1cncc(NS(=O)(=O)c2ccc(OC)cc2C(=O)NCc2ccc(F)cc2)c1` [Example 111, N-(4-fluorobenzyl)-5-methoxy-2-{[(5-methoxypyridin-3-yl)amino]sulfonyl}benzamide], for which the figures for the Ki in test [1] (setting [4]) and in test [1] (setting [5]) were 27.3 nM and 6.8 nM, respectively. Moreover, in test [3], the concentration for half-maximal inhibition (IC50) amounted to 10 nM.

For the compound `CC[C@H](C)NC(=O)c1ccccc1S(=O)(=O)Nc1cncc(OC)c1` [Example 102, 2-{[(5-methoxypyridin-3-yl)amino]sulfonyl}-N-[(1S) -1-methylpropyl]benzamide], the results for the Ki in test [1] (setting [4]) and in test [1] (setting [5]) were 375 nM and 56 nM, respectively. Also, in test [3], the IC50 came out at 55 nM.

As for `Cc1ccncc1NS(=O)(=O)c1ccccc1C(=O)N(C)Cc1ccc(F)cc1` [Example 144, N-(4-fluorobenzyl)-N-methyl-2-{[(4-methylpyridin-3-yl)amino]sulfonyl}benzamide], the Ki stood at 327 nM in test [1] (setting [4]) and 39 nM in test [1] (setting [5]). In addition, in test [3], the IC50 worked out at 72 nM.

In the case of `CCOc1ccncc1NS(=O)(=O)c1ccccc1C(=O)N(C)Cc1ccc(C(F)(F)F)cc1` [Example 122, 2-{[(4-ethoxypyridin-3-yl)amino]sulfonyl}-N-methyl-N-[4-(trifluoromethyl)benzyl]benzamide], the Ki was 49.5 nM in test [1] (setting [4]) and 10 nM in test [1] (setting [5]). For the same compound, the IC50 in test [3] amounted to 31 nM.

With `Cc1cncc(NS(=O)(=O)c2ccccc2C(=O)N(C)Cc2ccccc2F)c1` [Example 129, N-(2-fluorobenzyl)-N-methyl-2-{[(5-methylpyridin-3-yl)amino]sulfonyl}benzamide], the Ki in test [1] (setting [4]) is 87.6 nM; in test [1] (setting [5]), 9.6 nM. In addition, the half-maximal inhibitory concentration (IC50) in test [3] was 12 nM.

Consider `Cc1cncc(NS(=O)(=O)c2ccccc2C(=O)NC(C)CC(C)C)c1` (stereo not shown) [Example 95, N-(1,3-dimethylbutyl)-2-{[(5-methylpyridin-3-yl)amino]sulfonyl}benzamide], for which the Ki in test [1] (setting [4]) worked out at 78 nM; in test [1] (setting [5]), 25.4 nM. Besides, in test [3], the IC50 was 8 nM.

Turning to `COc1ccncc1NS(=O)(=O)c1ccccc1C(=O)N[C@@H](C)C(C)C` [Example 108], the Ki in test [1] (setting [4]) came to 506 nM; in test [1] (setting [5]), 115 nM. Also, in test [3], the 50% inhibitory concentration (IC50) stood at 98 nM.
